Data from PubChem BioAssay (NCI).
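48-hour exposure; five concentrations; linearly interpolated endpoints. At the TGI there is no net growth.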

Tests used:
Assay in all cases: growth of human tumour cells (NCI), 48 h
MCF7 breast = system: MCF7 breast
OVCAR-5 ovarian = system: OVCAR-5 ovarian
RPMI-8226 leukemia = system: RPMI-8226 leukemia
NCI/ADR-RES ovarian = system: NCI/ADR-RES ovarian
EKVX NSCLC = system: EKVX NSCLC
MDA-MB-231 breast = system: MDA-MB-231 breast
MALME-3M melanoma = system: MALME-3M melanoma
NCI-H522 lung = system: NCI-H522 lung
SK-MEL-28 melanoma = system: SK-MEL-28 melanoma
MDA-MB-435 = system: MDA-MB-435
SK-OV-3 ovarian = system: SK-OV-3 ovarian
A549 NSCLC = system: A549 NSCLC
RXF 393 renal = system: RXF 393 renal
HOP-62 NSCLC = system: HOP-62 NSCLC
PC-3 prostate = system: PC-3 prostate
U251 CNS = system: U251 CNS
LOX IMVI melanoma = system: LOX IMVI melanoma

Row | Structure (SMILES) | TGI (MCF7 breast) [µM] | TGI (OVCAR-5 ovarian) [µM] | TGI (RPMI-8226 leukemia) [µM] | TGI (NCI/ADR-RES ovarian) [µM] | TGI (EKVX NSCLC) [µM] | TGI (MDA-MB-231 breast) [µM] | TGI (MALME-3M melanoma) [µM] | TGI (NCI-H522 lung) [µM] | TGI (SK-MEL-28 melanoma) [µM] | TGI (MDA-MB-435) [µM] | TGI (SK-OV-3 ovarian) [µM] | TGI (A549 NSCLC) [µM] | TGI (RXF 393 renal) [µM] | TGI (HOP-62 NSCLC) [µM] | TGI (PC-3 prostate) [µM] | TGI (U251 CNS) [µM] | TGI (LOX IMVI melanoma) [µM]
1 | Cc1c(CN2CCOCC2)c(CN2CCOCC2)c(C)n1-c1ccc(Cl)cn1 | > 100 | > 100 | > 100 | > 100 | > 100 | > 100 | > 100 | > 100 | > 100 | > 100 | > 100 | > 100 | > 100 | > 100 | > 100 | > 100 | 
2 | COc1ccc(NCc2cccc3c(=O)c4ccc(Cl)cc4oc23)cc1 | > 100 | > 100 | > 100 | > 100 | > 100 | > 100 | > 100 | > 100 | > 100 | > 100 | > 100 | > 100 |  | > 100 | > 100 | > 100 | > 100
3 | COc1ccc(C[C@@H]2OC3(C=CC(=O)CC3Sc3ccccc3)O[C@H]2Cc2ccc(OC)cc2)cc1 (some centres not stated) | 1.98 | 2.58 | 1.31 | 3.64 |  | 7.35 | 4.02 |  | 3.35 | 3.98 | 7.84 | 12.7 | 0.348 | 2.5 | 3.95 | 2.78 | 1.72
4 | COC(=O)C1=C(N)C2=C(N)Oc3ccccc3C2CC1=C(C#N)C#N (configuration not stated) | 93.1 | 81.7 | 48.6 | 47.5 | 84.4 | 59.4 | 58.1 | 40.7 |  | > 100 | > 100 | > 100 | > 100 | > 100 | > 100 | > 100 | 44.2
5 | C[n+]1c(-c2ccc(/C=N\Nc3ccnc(N/N=C/c4ccc(-c5cn6ccsc6[n+]5C)cc4)n3)cc2)cn2ccsc21 | > 100 | > 100 | > 100 | > 100 | 50 | 67.3 | 85.4 | > 100 |  | 6.94 | > 100 | > 100 | 56.3 | 51.6 | > 100 | 94.5 | 
6 | COc1ccc(/C(=N/Nc2nc3ccccc3n2Cc2ccccc2)C(=O)O)cc1 | 51.2 | > 100 | 55.8 | 54 | > 100 | 80.2 | 91.7 | 68.8 | > 100 | > 100 | 55 | > 100 |  | > 100 | > 100 | > 100 | 35.5
7 | COC1=CC(=O)C2=C(C1=O)[C@H]1CC[C@]3(C)C(=O)CC[C@H]3[C@@H]1CC2 | 35.4 | 44.6 | 81.3 | > 100 | 30.4 | 16.9 |  | 59.8 | > 100 | 45.6 | > 100 | > 100 | 67.8 | > 100 | 85.2 | > 100 | 35.4
8 | CC1CCC2C(C)C(OC(=O)CCC(=O)O)OC3OC4(C)CCC1C32OO4 (configuration not stated) | 28.5 | 57.8 | 24.1 | > 100 | 32.7 | > 100 |  |  | > 100 | 13.6 | > 100 | 29.9 |  | > 100 | > 100 | 31.3 | 2.92
9 | O=[N+]([O-])c1ccccc1S(=O)(=O)c1cccc2c1NCCC2 | > 100 | > 100 | > 100 | > 100 | > 100 | > 100 | > 100 |  | > 100 | > 100 | > 100 | > 100 | > 100 | > 100 | > 100 |  | > 100
10 | COC(=O)C1=C(C)NC(CF)=C(C(=O)OC)C1c1cccc2c(=O)c3ccccc3oc12 (configuration not stated) | > 100 | > 100 | > 100 | 27.8 | > 100 | > 100 | 83.6 | > 100 | > 100 | > 100 | > 100 | > 100 | > 100 | > 100 | 8.57 |  | > 100
11 | O=C(O[C@H](/C=C/c1ccccc1)P1(=O)N(Cc2ccccc2)[C@H]2CCCC[C@@H]2N1Cc1ccccc1)c1ccccc1 | > 100 | > 100 | 17.8 | > 100 | > 100 | 25.7 | 25.6 | > 100 | > 100 | 46.2 | > 100 | > 100 |  | > 100 | > 100 | 88.7 | 11.6
12 | Cc1ccc(NC(=O)CC(=O)N2N=C(N(c3ccccc3)c3ccccc3)CC2c2ccccc2)cc1 (configuration not stated) | > 100 | > 100 | > 100 | > 100 | > 100 | > 100 |  | > 100 | > 100 | > 100 | > 100 | > 100 | > 100 | > 100 | > 100 | > 100 | 
13 | O=S(=O)(Cc1ccccc1)c1nnc(S(=O)(=O)c2ccc(Cl)cc2)s1 | > 100 | 56.8 | 61.9 | 77.9 | 62 | 91.7 |  | 30.8 | 44 | 90.6 | 47.8 | 68.1 | 33.8 | 47.3 | 46.7 | 94.9 | 
14 | O=C1CC(=O)NC(=NN2C(=O)CSC2c2ccc(Cl)cc2)N1 (configuration not stated) | > 100 | > 100 | > 100 | > 100 |  | > 100 | > 100 | > 100 | > 100 | > 100 | > 100 | > 100 | > 100 | 60.9 | > 100 | > 100 | 
15 | CN1CC=C(C#CC(C)(C)O)CC1 | > 37.5 | > 37.5 | > 37.5 | > 37.5 | > 37.5 | > 37.5 | > 37.5 |  | > 37.5 | > 37.5 | > 37.5 | > 37.5 | > 37.5 | > 37.5 | > 37.5 | > 37.5 | > 37.5
